Test results published in US6888015B2, “Sphingolipid synthesis inhibitor” (Japan Science and Technology Agency, priority 2001, dated 2005).

Legend:
[1] = biological target: T1, serine palmitoyltransferase (Cricetulus griseus, UniProt O54694+O54695); test: Serine palmitoyltransferase activity, CHO membrane fraction; type: biochemical, Chinese hamster; conditions: 20 μM; data not shown
T1 construct: Membrane fraction prepared from CHO cells is used as an enzyme source; endogenous in cells; host or cells: CHO cells, membrane fraction
T1 sequence (O54695 1-473): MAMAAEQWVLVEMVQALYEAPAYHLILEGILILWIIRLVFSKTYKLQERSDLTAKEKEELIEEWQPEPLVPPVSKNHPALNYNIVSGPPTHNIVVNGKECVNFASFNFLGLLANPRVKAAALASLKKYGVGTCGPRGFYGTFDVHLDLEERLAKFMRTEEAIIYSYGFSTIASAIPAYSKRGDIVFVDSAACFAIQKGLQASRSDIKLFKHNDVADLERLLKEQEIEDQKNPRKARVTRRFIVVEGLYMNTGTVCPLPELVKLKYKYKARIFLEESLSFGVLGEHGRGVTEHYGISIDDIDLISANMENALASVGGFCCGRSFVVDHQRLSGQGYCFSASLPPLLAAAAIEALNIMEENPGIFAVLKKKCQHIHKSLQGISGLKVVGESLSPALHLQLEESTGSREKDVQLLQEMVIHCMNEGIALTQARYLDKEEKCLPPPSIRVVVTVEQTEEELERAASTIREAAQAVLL
T1 sequence (O54694 1-560): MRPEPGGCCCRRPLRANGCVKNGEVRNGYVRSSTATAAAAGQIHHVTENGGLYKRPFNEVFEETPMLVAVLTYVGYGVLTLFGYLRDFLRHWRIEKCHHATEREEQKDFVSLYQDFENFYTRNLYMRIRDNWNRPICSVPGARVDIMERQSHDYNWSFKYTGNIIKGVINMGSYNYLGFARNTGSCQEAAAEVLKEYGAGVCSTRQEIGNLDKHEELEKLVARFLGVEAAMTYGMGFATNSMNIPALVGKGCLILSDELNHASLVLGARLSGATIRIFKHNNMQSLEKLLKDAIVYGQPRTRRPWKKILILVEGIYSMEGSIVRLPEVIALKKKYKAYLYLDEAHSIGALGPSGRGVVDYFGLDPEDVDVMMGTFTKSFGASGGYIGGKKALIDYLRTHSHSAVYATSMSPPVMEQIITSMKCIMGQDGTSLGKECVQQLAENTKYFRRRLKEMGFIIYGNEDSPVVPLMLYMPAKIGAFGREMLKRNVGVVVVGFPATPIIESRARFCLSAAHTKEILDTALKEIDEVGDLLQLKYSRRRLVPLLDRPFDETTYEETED
Description: Membrane fraction prepared from CHO cells is used as an enzyme source.
Serine palmitoyltransferase activity is determined by the method disclosed in Document 7, and sphingosine N-acyl transferase activity is determined by a modification of the method disclosed in Document 7.

[2] = tested on: conversion of Cer to SM in intact cells; test: Conversion of [3H]Cer to [3H]SM in intact cells ([3H]sphingosine pulse-chase); type: cell-based, Chinese hamster; conditions: 1 μM; chase at 33° C. up to 1 hour with fumonisin B1
Description: The measurement of conversion of [^3H] Cer to [^3H] SM in cells is performed by a modified method of the method disclosed in Document 1. That is, as the first step, cells are pulse-labeled in 1.5 mL of Nutridoma medium containing 1 μM D-erythro-[^3H] sphingosine (2.5 μCi). After washed, the cells are incubated in 1.5 mL of Nutridoma medium supplemented with or without 1 μM HPA-12 at 4° C. for 15 minutes, then incubated under the presence of 100 μM fumonisin B, at 33° C. for various periods of time for chase.
The lipids are extracted from the chased cells, and separated by TLC with a developing solvent consisting of chloroform/methanol/H2O (volume ratio, 65:25:4). Then, the radioactivity of each lipid is measured by the method mentioned above.
To examine the inhibitory effect of HPA-12 on the step of Cer-to-SM conversion specifically, metabolic labeling experiments with [^3H] sphingosine are carried out. When cells are labelled with [^3H] sphingosine at 15° C., [^3H] sphingosine is effectively N-acylated and converted to [^3H] Cer, but, [^3H] Cer is not converted to [^3H] SM at this temperature (Document 2). After the labeling with [^3H] sphingosine at low temperature to generate [^3H] Cer, the cells are treated with 1 μM HPA-12 at 4° C. for 15 minutes, and then incubated at 33° C. up to 1 hour for chase. During the chase, de novo synthesis of [^3H] […]

CHO cells = test: Viability of cells (MTT); type: cell-based, Chinese hamster; conditions: 10 μM; data not shown
Description: CHO cells are seeded at a density of 2.0×10^4 per one hole of a 48-hole culture plate in 500 μL of F12 medium containing 10% NBS, and cultivated at 33[…] overnight. Then, the medium is changed to 500 μL of Nutridoma medium containing various concentrations of HPA compounds at 33° C. for 24 hours, and the viability of cells are determined using MTT as disclosed in Document 9.

CCCCCCCCCCCC(=O)NC(CO)CC(O)c1ccccc1 (stereo not shown) [HPA-12, N-(3-hydroxy-1-hydroxymethyl-3-phenylprol)dodecaneamide]
activity of serine palmitoyltransferase [1]: does not affect
formation of [3H]GlcCer [2]: does not inhibit and rather increases
inhibition of formation of [3H]SM [2]: 50%
toxicity to CHO cells (CHO cells): highly toxic
